Measured values taken from patent US6355799B1, “Substituted benzene compounds, process for their preparation, and herbicidal and defoliant compositions containing them” (ISK Americas Incorporated, priority 1997, dated 2002).

Legend:
Type in all cases: in vivo
[1] = tested on: redroot pigweed (Amaranthus retroflexus, AMARE); assay: Pre-emerge test, greenhouse herbicide activity screening; settings: pre-emerge, 14 days after application, scale 0-100
Method in brief: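 Visual ratings on a 0-100 scale (0 no damage, 100 all plants dead) were taken at 14 days after treatment. Rates of 15-1000 g ai/ha in acetone, 187 l/ha, were sprayed onto soil one day after planting (pre-emerge) or onto 2-3 leaf plants with 0.25% v/v surfactant (post-emerge).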

[2] = tested on: barnyardgrass (Echinochloa crus-galli, ECHCG); assay: as above; settings: pre-emerge, 14 days after application, scale 0-100
From the text: (§1) A standard greenhouse herbicide activity screening system was used to evaluate the herbicidal efficacy and crop safety of these test compounds. Seven broadleaf weed species including redroot pigweed (Amaranthus retroflexus, AMARE, velvetleaf (Abutilon theophrasti, ABUTH), sicklepod (Cassia obtusifolia, CASOB), ivyleaf morningglory (Ipomoea hederacea, IPOHE), lambsquarters (Chenopodium album, CHEAL), common ragweed (Ambrosia artemisizfolia L., AMBEL), and cocklebur (Xanthium strumarium, XANST) were used as test species. Four grass weed species including green foxtail (Setaria viridis, SETVI), barnyardgrass (Echinochloa crus-galli, ECHCG), johnsongrass (Sorghum halepense, SORHA), and large crabgrass (Digitaria sanguinalis, DIGSA) were also used. In addition, three crop species, field corn (Zea mays L., var. Dekalb 535, CORN), soybean (Glycine max L., var. Pella 86, SOY), and is upland rice (Oryza sp., var. Tebonnet, RICE) were included.
(§2) All plants were grown in 10 cm square plastic pots which were filled with a sandy loam soil mix. For pre-emerge tests, seeds were planted one day prior to application of the test compounds. For post-emerge tests, seeds were planted 8-21 days prior to the test to allow emergence and good foliage development prior to application of the test substances. At the time of the post-emerge application, plants of all species were usually at the 2-3 leaf stage of development.
(§3) All test compounds Were dissolved in acetone and applied to the test units in a volume of 187 l /ha. Test materials were applied at rates ranging from 15 g ai/ha to 1000 g ai/ha using a track sprayer equipped with a TJ8001E even flow flat fan spray nozzle. Plants were arranged on a shelf so that the top of the canopy (post-emerge) or top of the soil surface (pre-emerge) was 40-45 cm below the nozzle. Pressurized air was used to force the test solution through the nozzle as it was mechanically advanced (via electrically driven chain drive) over the top of all test plants/pots. This application simulates a typical commercial field herbicide application.
(§4) In the post-emerge test, a commercial non-ionic surfactant was also included (0.25% v/v) to enhance wetting of the leaf surfaces of target plants. Immediately after application, test units of the pre-emerge applications were watered at the soil surface to incorporate the test materials. Subsequently, these test units were bottom-watered. Post-emerge test units were always bottom-watered.
(§5) At 14 days after application of the test materials, phytotoxicity ratings were recorded. A rating scale of 0-100 was used as previously described in Research Methods in Weed Science, 2nd edition, B. Truelove, Ed., Southern Weed Science Society, Auburn University, Auburn, Ala. 1977. Briefly, “0” corresponds to no damage and “100” corresponds to complete death of all plants in the test unit. This scale was used both to determine efficacy against weed species and damage to crop species. Herbicide activity data for various compounds of this invention, which are shown by compound No. in Tables 1-8, are shown in Tables 11 and 12.

[3] = tested on: green foxtail (Setaria viridis, SETVI); assay: as above; settings: pre-emerge, 14 days after application, scale 0-100
From the text: as §1, §2, §3, §4, §5

[4] = tested on: ivyleaf morningglory (Ipomoea hederacea, IPOHE); assay: as above; settings: pre-emerge, 14 days after application, scale 0-100
From the text: as §1, §2, §3, §4, §5

[5] = tested on: lambsquarters (Chenopodium album, CHEAL); assay: as above; settings: pre-emerge, 14 days after application, scale 0-100
From the text: as §1, §2, §3, §4, §5

[6] = tested on: large crabgrass (Digitaria sanguinalis, DIGSA); assay: as above; settings: pre-emerge, 14 days after application, scale 0-100
From the text: as §1, §2, §3, §4, §5

[7] = tested on: sicklepod (Cassia obtusifolia, CASOB); assay: as above; settings: pre-emerge, 14 days after application, scale 0-100
From the text: as §1, §2, §3, §4, §5

[8] = tested on: velvetleaf (Abutilon theophrasti, ABUTH); assay: as above; settings: pre-emerge, 14 days after application, scale 0-100
From the text: as §1, §2, §3, §4, §5

[9] = tested on: field corn (Zea mays L., var. Dekalb 535, CORN); assay: Pre-emerge test, crop safety; settings: pre-emerge, 14 days after application, scale 0-100
Method in brief: (§6)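 Applied at 15–1000 g ai/ha from acetone in 187 l/ha spray volume. Post-emergence applications included 0.25% v/v non-ionic surfactant and reached plants sown 8–21 days before. Pre-emergence applications were incorporated by surface watering. Efficacy or crop damage was rated on a 0–100 scale after 14 days.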

[10] = tested on: upland rice (Oryza sp., var. Tebonnet, RICE); assay: Pre-emerge test, crop safety; settings: pre-emerge, 14 days after application, scale 0-100
Method in brief: as §6

[11] = tested on: barnyardgrass (Echinochloa crus-galli, ECHCG); assay: Post-emerge test, greenhouse herbicide activity screening; settings: post-emerge, 14 days after application, rating scale 0-100
From the text: as §1, §2, §3, §4, §5

[12] = tested on: green foxtail (Setaria viridis, SETVI); assay: as above; settings: post-emerge, 14 days after application, rating scale 0-100
From the text: as §1, §2, §3, §4, §5

[13] = tested on: ivyleaf morningglory (Ipomoea hederacea, IPOHE); assay: as above; settings: post-emerge, 14 days after application, rating scale 0-100
From the text: as §1, §2, §3, §4, §5

[14] = tested on: lambsquarters (Chenopodium album, CHEAL); assay: as above; settings: post-emerge, 14 days after application, rating scale 0-100
From the text: as §1, §2, §3, §4, §5

[15] = tested on: large crabgrass (Digitaria sanguinalis, DIGSA); assay: as above; settings: post-emerge, 14 days after application, rating scale 0-100
From the text: as §1, §2, §3, §4, §5

[16] = tested on: redroot pigweed (Amaranthus retroflexus, AMARE); assay: as above; settings: post-emerge, 14 days after application, rating scale 0-100
From the text: as §1, §2, §3, §4, §5

[17] = tested on: sicklepod (Cassia obtusifolia, CASOB); assay: as above; settings: post-emerge, 14 days after application, rating scale 0-100
From the text: as §1, §2, §3, §4, §5

[18] = tested on: velvetleaf (Abutilon theophrasti, ABUTH); assay: as above; settings: post-emerge, 14 days after application, rating scale 0-100
From the text: as §1, §2, §3, §4, §5

[19] = tested on: field corn (Zea mays L., var. Dekalb 535, CORN); assay: Post-emerge test, crop safety; settings: post-emerge, 14 days after application, rating scale 0-100
From the text: as §1, §2, §3, §4, §5

[20] = tested on: upland rice (Oryza sp., var. Tebonnet, RICE); assay: Post-emerge test, crop safety; settings: post-emerge, 14 days after application, rating scale 0-100
From the text: as §1, §2, §3, §4, §5

Compound	phytotoxicity rating AMARE ([1]; 63 g ai/ha)	phytotoxicity rating AMARE ([1]; 250 g ai/ha)	phytotoxicity rating ECHCG ([2]; 63 g ai/ha)	phytotoxicity rating ECHCG ([2]; 250 g ai/ha)	phytotoxicity rating SETVI ([3]; 63 g ai/ha)	phytotoxicity rating SETVI ([3]; 250 g ai/ha)	phytotoxicity rating IPOHE ([4]; 63 g ai/ha)	phytotoxicity rating IPOHE ([4]; 250 g ai/ha)	phytotoxicity rating CHEAL ([5]; 63 g ai/ha)	phytotoxicity rating CHEAL ([5]; 250 g ai/ha)	phytotoxicity rating DIGSA ([6]; 63 g ai/ha)	phytotoxicity rating DIGSA ([6]; 250 g ai/ha)	phytotoxicity rating CASOB ([7]; 63 g ai/ha)	phytotoxicity rating CASOB ([7]; 250 g ai/ha)	phytotoxicity rating ABUTH ([8]; 63 g ai/ha)	phytotoxicity rating ABUTH ([8]; 250 g ai/ha)	phytotoxicity rating CORN (crop damage) ([9]; 63 g ai/ha)	phytotoxicity rating CORN (crop damage) ([9]; 250 g ai/ha)	phytotoxicity rating RICE (crop damage) ([10]; 63 g ai/ha)	phytotoxicity rating RICE (crop damage) ([10]; 250 g ai/ha)	also measured
C=Cc1ccc(C(=O)N(C(=O)c2ccc(C=C)cc2)c2c(OC)c(Br)cc(F)c2-n2c(=O)cc(C(F)(F)F)n(C)c2=O)cc1 [2-183]	0	30	0	0	0	0	0	0	0	40	0	0	0	0	0	10	0	0	0	0	ECHCG phytotoxicity rating ([11]; 63 g ai/ha): 0; ECHCG phytotoxicity rating ([11]; 250 g ai/ha): 0; SETVI phytotoxicity rating ([12]; 63 g ai/ha): 0; SETVI phytotoxicity rating ([12]; 250 g ai/ha): 0; IPOHE phytotoxicity rating ([13]; 63 g ai/ha): 0; IPOHE phytotoxicity rating ([13]; 250 g ai/ha): 40; CHEAL phytotoxicity rating ([14]; 63 g ai/ha): 0; CHEAL phytotoxicity rating ([14]; 250 g ai/ha): 80; DIGSA phytotoxicity rating ([15]; 63 g ai/ha): 0; DIGSA phytotoxicity rating ([15]; 250 g ai/ha): 0; AMARE phytotoxicity rating ([16]; 63 g ai/ha): 0; AMARE phytotoxicity rating ([16]; 250 g ai/ha): 10; CASOB phytotoxicity rating ([17]; 63 g ai/ha): 0; CASOB phytotoxicity rating ([17]; 250 g ai/ha): 0; ABUTH phytotoxicity rating ([18]; 63 g ai/ha): 0; ABUTH phytotoxicity rating ([18]; 250 g ai/ha): 50; CORN phytotoxicity rating (crop damage) ([19]; 63 g ai/ha): 0; CORN phytotoxicity rating (crop damage) ([19]; 250 g ai/ha): 0; RICE phytotoxicity rating (crop damage) ([20]; 63 g ai/ha): 0; RICE phytotoxicity rating (crop damage) ([20]; 250 g ai/ha): 0
COc1c(Cl)cc(F)c(-n2c(=O)cc(C(F)(F)F)n(N)c2=O)c1NC(=O)c1ccc2ccccc2c1 [2-184]	100	100	30	80	50	100	50	100	100	100	60	100	50	75	100	100	0	30	30	60	ECHCG phytotoxicity rating ([11]; 63 g ai/ha): 40; ECHCG phytotoxicity rating ([11]; 250 g ai/ha): 50; SETVI phytotoxicity rating ([12]; 63 g ai/ha): 60; SETVI phytotoxicity rating ([12]; 250 g ai/ha): 80; IPOHE phytotoxicity rating ([13]; 63 g ai/ha): 100; IPOHE phytotoxicity rating ([13]; 250 g ai/ha): 100; CHEAL phytotoxicity rating ([14]; 63 g ai/ha): 100; CHEAL phytotoxicity rating ([14]; 250 g ai/ha): 100; DIGSA phytotoxicity rating ([15]; 63 g ai/ha): 20; DIGSA phytotoxicity rating ([15]; 250 g ai/ha): 90; AMARE phytotoxicity rating ([16]; 63 g ai/ha): 100; AMARE phytotoxicity rating ([16]; 250 g ai/ha): 100; CASOB phytotoxicity rating ([17]; 63 g ai/ha): 100; CASOB phytotoxicity rating ([17]; 250 g ai/ha): 100; ABUTH phytotoxicity rating ([18]; 63 g ai/ha): 100; ABUTH phytotoxicity rating ([18]; 250 g ai/ha): 100; CORN phytotoxicity rating (crop damage) ([19]; 63 g ai/ha): 10; CORN phytotoxicity rating (crop damage) ([19]; 250 g ai/ha): 75; RICE phytotoxicity rating (crop damage) ([20]; 63 g ai/ha): 40; RICE phytotoxicity rating (crop damage) ([20]; 250 g ai/ha): 65
COc1c(Cl)cc(F)c(-n2c(=O)cc(C(F)(F)F)n(N)c2=O)c1NC(=O)COCc1ccccc1 [2-187]	100	100	20	60	50	100	75	100	100	100	90	100	60	100	100	100	0	90	40	90	ECHCG phytotoxicity rating ([11]; 63 g ai/ha): 20; ECHCG phytotoxicity rating ([11]; 250 g ai/ha): 40; SETVI phytotoxicity rating ([12]; 63 g ai/ha): 40; SETVI phytotoxicity rating ([12]; 250 g ai/ha): 60; IPOHE phytotoxicity rating ([13]; 63 g ai/ha): 100; IPOHE phytotoxicity rating ([13]; 250 g ai/ha): 100; CHEAL phytotoxicity rating ([14]; 63 g ai/ha): 100; CHEAL phytotoxicity rating ([14]; 250 g ai/ha): 100; DIGSA phytotoxicity rating ([15]; 63 g ai/ha): 10; DIGSA phytotoxicity rating ([15]; 250 g ai/ha): 40; AMARE phytotoxicity rating ([16]; 63 g ai/ha): 99; AMARE phytotoxicity rating ([16]; 250 g ai/ha): 100; CASOB phytotoxicity rating ([17]; 63 g ai/ha): 70; CASOB phytotoxicity rating ([17]; 250 g ai/ha): 100; ABUTH phytotoxicity rating ([18]; 63 g ai/ha): 100; ABUTH phytotoxicity rating ([18]; 250 g ai/ha): 100; CORN phytotoxicity rating (crop damage) ([19]; 63 g ai/ha): 15; CORN phytotoxicity rating (crop damage) ([19]; 250 g ai/ha): 75; RICE phytotoxicity rating (crop damage) ([20]; 63 g ai/ha): 50; RICE phytotoxicity rating (crop damage) ([20]; 250 g ai/ha): 90
